Assay results published in ChEMBL document CHEMBL2073892, “Substitution of Trp1242 of TM17 alters substrate specificity of human multidrug resistance protein 3” (Am J Physiol Gastrointest Liver Physiol, 2003).

Target: Multidrug resistance associated protein (Homo sapiens) (UniProt Q96QA9)
Experiment: TP_TRANSPORTER: uptake in membrane vesicles from HEK293T cells
Type: functional, cell membranes
Conditions: HEK293; Membrane vesicle

Chain of Multidrug resistance associated protein (Homo sapiens) (Q96QA9 as listed by the source): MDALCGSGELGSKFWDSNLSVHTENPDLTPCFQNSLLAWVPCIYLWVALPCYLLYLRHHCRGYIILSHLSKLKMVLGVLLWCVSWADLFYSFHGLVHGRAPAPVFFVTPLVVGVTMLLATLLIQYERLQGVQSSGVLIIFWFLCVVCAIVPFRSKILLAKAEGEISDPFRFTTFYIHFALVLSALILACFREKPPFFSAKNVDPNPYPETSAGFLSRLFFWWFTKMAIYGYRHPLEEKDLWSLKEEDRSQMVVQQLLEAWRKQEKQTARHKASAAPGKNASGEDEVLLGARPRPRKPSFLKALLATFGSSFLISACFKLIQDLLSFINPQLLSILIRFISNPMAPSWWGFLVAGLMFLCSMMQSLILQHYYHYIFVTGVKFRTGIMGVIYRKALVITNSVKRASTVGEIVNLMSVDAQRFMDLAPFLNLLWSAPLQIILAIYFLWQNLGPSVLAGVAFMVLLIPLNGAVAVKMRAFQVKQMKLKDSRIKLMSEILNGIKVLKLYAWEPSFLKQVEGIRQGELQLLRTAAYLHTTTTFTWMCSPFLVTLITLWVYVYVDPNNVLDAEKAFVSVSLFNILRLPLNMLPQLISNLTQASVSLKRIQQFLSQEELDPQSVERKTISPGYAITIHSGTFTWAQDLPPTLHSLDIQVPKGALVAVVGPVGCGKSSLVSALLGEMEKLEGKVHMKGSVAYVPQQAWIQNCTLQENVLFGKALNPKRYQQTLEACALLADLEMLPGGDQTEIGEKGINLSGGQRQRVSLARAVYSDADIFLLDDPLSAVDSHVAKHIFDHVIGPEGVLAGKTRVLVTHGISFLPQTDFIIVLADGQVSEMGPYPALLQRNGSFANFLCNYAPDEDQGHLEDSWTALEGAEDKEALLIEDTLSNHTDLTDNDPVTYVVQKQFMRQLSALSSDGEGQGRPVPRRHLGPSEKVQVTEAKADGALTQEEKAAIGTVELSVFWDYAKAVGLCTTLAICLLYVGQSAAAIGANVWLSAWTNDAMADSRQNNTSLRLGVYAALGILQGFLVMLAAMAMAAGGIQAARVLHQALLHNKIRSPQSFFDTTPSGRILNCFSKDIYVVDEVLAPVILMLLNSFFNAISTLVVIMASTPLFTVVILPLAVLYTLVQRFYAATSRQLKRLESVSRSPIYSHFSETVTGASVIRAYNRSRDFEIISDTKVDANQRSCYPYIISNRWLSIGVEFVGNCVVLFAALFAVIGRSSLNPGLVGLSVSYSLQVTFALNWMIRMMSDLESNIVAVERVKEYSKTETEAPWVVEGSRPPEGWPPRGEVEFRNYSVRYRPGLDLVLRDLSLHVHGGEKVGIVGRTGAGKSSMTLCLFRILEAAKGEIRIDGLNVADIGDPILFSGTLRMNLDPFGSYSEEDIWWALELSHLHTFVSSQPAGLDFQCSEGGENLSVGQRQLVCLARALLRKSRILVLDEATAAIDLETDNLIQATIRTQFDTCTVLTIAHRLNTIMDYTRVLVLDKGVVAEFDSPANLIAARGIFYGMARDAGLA

Row | Activity | SMILES
1 | substrate [+] | CCCCC/C=C\C\C=C/C=C/C=C/[C@@H](SC[C@@H](NC(=O)CC[C@H](N)C(=O)O)C(=O)NCC(=O)O)[C@@H](O)CCCC(=O)O
2 | substrate [+] | CN(Cc1cnc2nc(N)nc(N)c2n1)c1ccc(C(=O)N[C@@H](CCC(=O)O)C(=O)O)cc1
